Test results published in patent US20100216827A1 (Metabolex, Inc., priority 2008, published 2010).
Read-outs that look alike come from different tables or passages of the source.

Target: T1, human GPR120 (Homo sapiens, UniProt Q5NUL3)
T1 construct: host or cells: HEK293 cells coexpressing Gqi5
T1 sequence (Q5NUL3 1-361): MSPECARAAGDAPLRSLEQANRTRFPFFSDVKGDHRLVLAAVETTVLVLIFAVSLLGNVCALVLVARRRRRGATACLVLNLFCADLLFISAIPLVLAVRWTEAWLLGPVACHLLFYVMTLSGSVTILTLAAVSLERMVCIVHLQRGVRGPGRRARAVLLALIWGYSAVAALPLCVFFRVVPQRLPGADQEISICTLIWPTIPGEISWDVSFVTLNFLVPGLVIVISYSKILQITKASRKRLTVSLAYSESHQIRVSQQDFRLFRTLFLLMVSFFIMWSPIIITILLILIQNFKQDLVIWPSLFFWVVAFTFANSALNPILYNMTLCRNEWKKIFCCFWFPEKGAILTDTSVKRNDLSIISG
Assay: Intracellular Ca2+ (FLIPR Calcium 4, Flexstation) assay in human GPR120 stable HEK293 cell line coexpressing Gqi5
Assay type: cell-based
Conditions: for % Activity at 5 μM: 5 μM compound compared to the maximal activity of GW9508 at 6.7 μM (100%); for EC50: human GPR120 stably expressing cells, 8 concentrations 0.00001 to 20 μM
Procedure: Human GPR120 stable cell line was purchased from Multispan Inc (26219 Eden Landing Road, Hayward, Calif. 94545). This GPR120 cell line was generated in HEK293 cells coexpressing Gqi5. In this cell line, the Flag epitope tag (DYKDDDDK) was fused to the amino terminus of human GPR120 protein.
The concentration of intracellular Ca^2+ was measured as described below. Human GPR120 cells were plated in 96 well plates (Poly-D-Lysine coated black/clear Plate, Greiner Bio-One) at 70,000 cells per well and cultured overnight in conditions of 37° C. and 5% CO2. A Ca^2+ assay dye stock solution was prepared by adding 10 mL of assay buffer (HBSS/20 mM HEPES, pH 7.4) to FLIPR Calcium 4 Assay Bulk Kit (Molecular Devices). The 10 mL of Ca^2+ assay dye solution was prepared by further diluting 0.5 mL of Ca^2+ assay dye stock solution with 10 mL of assay buffer. The medium of the cells was removed and immediately 100 μl of the Ca^2+ assay dye solution was dispensed into each well followed by incubation at 37° C. and 5% CO2 for 50 minutes to incorporate the Ca^2+ dye into the cells. The cell plate was then placed in the Flexstation (Molecular Devices) for 20 minutes at 37° C. Compounds were dissolved in 100% DMSO and diluted to desired concentrations with assay buffer and placed in Flexstation simultaneously with the cell plate for 20 minute incubation at 37° C. prior to reading. Fluorescence intensity was measured immediately following compound addition (25 μl/well) on the Flexstation at an excitation wavelength of 485 nm and an emission wavelength of 525 with 515 nm auto cutoff. The resulting increase in fluorescence intensities corresponds to increases in intracellular Ca^2+ levels.
Compounds were dissolved in 100% DMSO to a concentration of 20 mM to provide stock solutions. To determine activity against human GPR120, compounds were added with human GPR120 stably expressing cells (described above), at 8 desired concentrations ranging from 0.00001 to 20 μM, in 96 well plates and fluorescence intensities were measured for 90 seconds with 2-second intervals. An EC50 value (concentration of the GPR120 agonist where 50% of the agonist's maximal activity is observed) was calculated using the changes (Max-Min) of fluorescent intensity.
To determine percent activity for a tested compound, the fluorescence intensity value obtained at a particular concentration were compared to the maximal fluorescence intensity value obtained for reference compound GW9508 (4-[[(3-phenoxyphenyl)methyl]amino]benzene propanoic acid; British Journal of Pharmacology 2006 148, 619-628) that acts as a full agonist of the GPR120 receptor. The maximal activity of GW9508 is designated as 100% activity. Typically, the GW9508 activity reached a maximum at a concentration of approximately 6.7 μM. Activities of compounds that were tested according to this method are shown in Table 1 below and are expressed as % activity at 5 μM compound compared to the maximal activity of GW9508 at 6.7 μM.

[1] = read-out: EC50 between >1 μM and ≦10 μM

Row | Compound | % Activity at 5 μM | EC50 (read-out: EC50 ≦ 1 μM) | EC50 (read-out: EC50 > 10 μM) | EC50 [1]
1 | Cc1cc(COc2c(F)cc(CCC(=O)O)cc2F)n(-c2ccc(F)c(F)c2)n1 [Example 53, 3-(4-((1-(3,4-difluorophenyl)-3-methyl-1H-pyrazol-5-yl)methoxy)-3,5-difluorophenyl)propanoic acid] | 84% | ≤ 1000 nM |  | 
2 | Cc1cc(COc2c(F)cc(CC(F)C(=O)O)cc2F)n(-c2ccc(Cl)cc2)n1 (stereo not drawn) [Example 54, 3-(4-((1-(4-chlorophenyl)-3-methyl-1H-pyrazol-5-yl)methoxy)-3,5-difluorophenyl)-2-fluoropropanoic acid] | 48% | ≤ 1000 nM |  | 
3 | Cc1cc(COc2c(F)cc(CC3CC3C(=O)O)cc2F)n(-c2ccc(Cl)cc2)n1 (stereo not drawn) [Example 55, 2-(4-((1-(4-chlorophenyl)-3-methyl-1H-pyrazol-5-yl)methoxy)-3,5-difluorobenzyl)cyclopropanecarboxylic acid] | 66% | ≤ 1000 nM |  | 
4 | O=C(O)CCc1cc(F)c(OCc2cc(C(F)(F)F)nn2-c2ccc(Cl)cc2)c(F)c1 [Example 56, 3-(4-((1-(4-chlorophenyl)-3-(trifluoromethyl)-1H-pyrazol-5-yl)methoxy)-3,5-difluorophenyl)propanoic acid] | 71% | ≤ 1000 nM |  | 
5 | O=C(O)C(F)(F)Cc1cc(F)c(OCc2cc(C(F)(F)F)nn2-c2ccc(Cl)cc2)c(F)c1 [Example 57, 3-(4-((1-(4-chlorophenyl)-3-(trifluoromethyl)-1H-pyrazol-5-yl)methoxy)-3,5-difluorophenyl)-2,2-difluoropropanoic acid] | 85% | ≤ 1000 nM |  | 
6 | Cc1onc(-c2ccccc2)c1COc1ccc2c(c1)CCC2CC(=O)O (stereo not drawn) [Example 58, 2-(5-((5-methyl-3-phenylisoxazol-4-yl)methoxy)-2,3-dihydro-1H-inden-1-yl)acetic acid] | 66% | ≤ 1000 nM |  | 
7 | Cc1cc(COc2ccc3c(c2)CCC3CC(=O)O)n(-c2ccc(Cl)cc2)n1 (stereo not drawn) [Example 59, 2-(5-((1-(4-chlorophenyl)-3-methyl-1H-pyrazol-5-yl)methoxy)-2,3-dihydro-1H-inden-1-yl)acetic acid] | 100% | ≤ 1000 nM |  | 
8 | O=C(O)CCc1cc(F)c(OCc2snnc2-c2ccc(Cl)cc2)c(F)c1 [Example 62, 3-(4-((4-(4-chlorophenyl)-1,2,3-thiadiazol-5-yl)methoxy)-3,5-difluorophenyl)propanoic acid] | 88% | ≤ 1000 nM |  | 
9 | O=C(O)C1CC1c1cc(F)c(OCc2snnc2-c2ccccc2)c(F)c1 (stereo not drawn) [Example 63, 2-(3,5-difluoro-4-((4-phenyl-1,2,3-thiadiazol-5-yl)methoxy)phenyl)cyclopropane carboxylic acid] | 76% | ≤ 1000 nM |  | 
10 | Cc1cc(COc2c(F)cc(C3CC3C(=O)O)cc2F)n(-c2ccccc2)n1 (stereo not drawn) [Example 64, 2-(3,5-difluoro-4-((3-methyl-1-phenyl-1H-pyrazol-5-yl)methoxy)phenyl)cyclopropane carboxylic acid] | 71% | ≤ 1000 nM |  | 

Second part, the compound after the results:

Row | % Activity at 5 μM | EC50 (read-out: EC50 ≦ 1 μM) | EC50 (read-out: EC50 > 10 μM) | EC50 [1] | Compound
11 | 86% | ≤ 1000 nM |  |  | O=C(O)CCc1cc(F)c(OCc2cc(C(F)(F)F)nn2-c2ccccc2)c(F)c1 [Example 65, 3-(3,5-difluoro-4-((1-phenyl-3-(trifluoromethyl)-1H-pyrazol-5-yl)methoxy)phenyl)propanoic acid]
12 | 15% |  | > 10000 nM |  | C[C@@H](Oc1cc(F)c(OCc2snnc2-c2ccc(Cl)cc2)c(F)c1)C(=O)O [Example 66, (R)-2-(4-((4-(4-chlorophenyl)-1,2,3-thiadiazol-5-yl)methoxy)-3,5-difluorophenoxy)propanoic acid]
13 | 59% |  |  | 1000 to 10000 nM | O=C(O)CCC(=O)c1ccc(OCc2snnc2-c2ccc(Cl)cc2)cc1 [Example 67, 4-(4-((4-(4-chlorophenyl)-1,2,3-thiadiazol-5-yl)methoxy)phenyl)-4-oxobutanoic acid]
14 | 54% |  |  | 1000 to 10000 nM | CO/N=C(/CCC(=O)O)c1ccc(OCc2snnc2-c2ccc(Cl)cc2)cc1 [Example 68, (Z)-4-(4-((4-(4-chlorophenyl)-1,2,3-thiadiazol-5-yl)methoxy)phenyl)-4-(methoxyimino)butanoic acid]
15 | 87% |  |  | 1000 to 10000 nM | C/C(=C\C(=O)O)Cc1ccc(OCc2snnc2-c2ccc(Cl)cc2)cc1 [Example 69, (E)-4-(4-((4-(4-chlorophenyl)-1,2,3-thiadiazol-5-yl)methoxy)phenyl)-3-methylbut-2-enoic acid]
16 | 62% |  |  | 1000 to 10000 nM | C/C(=C\C(=O)O)CCc1ccc(OCc2snnc2-c2ccc(Cl)cc2)cc1 [Example 70, (E)-5-(4-((4-(4-chlorophenyl)-1,2,3-thiadiazol-5-yl)methoxy)phenyl)-3-methylpent-2-enoic acid]
17 | 100% | ≤ 1000 nM |  |  | Cc1cc(COc2ccc(CCC(C)CC(=O)O)cc2)n(-c2ccc(Cl)cc2)n1 (stereo not drawn) [Example 71, 5-(4-((1-(4-chlorophenyl)-3-methyl-1H-pyrazol-5-yl)methoxy)phenyl)-3-methyl pentanoic acid]
18 | 100% | ≤ 1000 nM |  |  | Cc1cc(COc2ccc(CC(C)CC(=O)O)cc2)n(-c2ccc(Cl)cc2)n1 (stereo not drawn) [Example 72, 4-(4-((1-(4-chlorophenyl)-3-methyl-1H-pyrazol-5-yl)methoxy)phenyl)-3-methylbutanoic acid]
19 | 72% | ≤ 1000 nM |  |  | O=C(O)CCc1cc(F)c(OCc2snnc2-c2ccc(F)c(F)c2)c(F)c1 [Example 73, 3-(4-((4-(3,4-difluorophenyl)-1,2,3-thiadiazol-5-yl)methoxy)-3,5-difluorophenyl)propanoic acid]
20 | 85% | ≤ 1000 nM |  |  | Cc1cc(COc2c(F)cc(CC(C)C(=O)O)cc2F)n(-c2ccc(C(C)C)cc2)n1 (stereo not drawn) [Example 76, 3-(3,5-difluoro-4-((1-(4-isopropylphenyl)-3-methyl-1H-pyrazol-5-yl)methoxy)phenyl)-2-methylpropanoic acid]
21 | 95% | ≤ 1000 nM |  |  | Cc1cc(COc2c(F)cc(CC(C)C(=O)O)cc2F)n(-c2ccc(C(F)(F)F)cc2)n1 (stereo not drawn) [Example 77, 3-(3,5-difluoro-4-((3-methyl-1-(4-(trifluoromethyl)phenyl)-1H-pyrazol-5-yl)methoxy)phenyl)-2-methylpropanoic acid]
22 | 92% | ≤ 1000 nM |  |  | Cc1cc(COc2ccc(CC(C)C(=O)O)cc2C(F)(F)F)n(-c2ccc(Cl)cc2)n1 (stereo not drawn) [Example 78, 3-(4-((1-(4-chlorophenyl)-3-methyl-1H-pyrazol-5-yl)methoxy)-3-(trifluoromethyl)phenyl)-2-methylpropanoic acid]
23 | 9% |  | > 10000 nM |  | Cc1cc(COc2c(F)cc(CC(C)C(=O)O)cc2F)n(-c2ccc(C(N)=O)cc2)n1 (stereo not drawn) [Example 79, 3-(4-((1-(4-carbamoylphenyl)-3-methyl-1H-pyrazol-5-yl)methoxy)-3,5-difluorophenyl)-2-methylpropanoic acid]
24 | 92% | ≤ 1000 nM |  |  | Cc1cc(COc2c(F)cc(CC(C)C(=O)O)cc2F)n(-c2ccc(C#N)cc2)n1 (stereo not drawn) [Example 80, 3-(4-((1-(4-cyanophenyl)-3-methyl-1H-pyrazol-5-yl)methoxy)-3,5-difluorophenyl)-2-methylpropanoic acid]
